{
  "source": "paper PMC9983306",
  "about": "“Structurally Defined Water‐Soluble Metallofullerene Derivatives towards Biomedical Applications” (Angewandte Chemie (International Ed. in English), 2022)",
  "test": "T1 relaxivity by NMR inversion-recovery",
  "assay_type": "physicochemical",
  "settings": "per molecule concentration",
  "experimental": "The T 1 relaxivity values of water‐soluble Gd MBTs were tested on 60 MHz (1.4 T) and 300 MHz (7.1 T) NMR spectrometers (Table S1), together with a representative commercial GBCA gadodiamide (i.e., Omniscan^TM). […] The enhanced contrast was directly visualized on a 1.0 T MRI scanner, with 20 μM and 5 μM 8 d, 8 d′, 8 e, and gadodiamide (Figure 5a), and the imaging contrast is consistent with the measured relaxivity values. The preclusion of ion leakage by the robust EMF cage dictates that the real limiting factor of MBT contrast agents is the toxicity of the MBT structure, not individual Gd^3+ ions, which means the molecular relaxivity of the MBTs is the more appropriate and relevant parameter for clinical evaluations. […]\nDynamic light scatt ering ex periments w ere performed using a Malvern Z etasizer Nano Z S90 instrument w ith a standard laser source (4mW, 633nm), to measure the hydrodynamic s ize of the aggregates formed by the samples in s olution. 1 uM sample concentrations were used for all the samples measured. […]\nSamples 8b, 8b′ and 8c (16 µM, or 16800 ppb Lu) were taken in dialysis bags (MWCO = 1kD) and dialyzed against 1 50 mL PBS 1x f or 7 days without changing diasylate (outside solution in the beaker). […] With a detection limit < 0.1 ppb, no Lu3+ ions w ere detected in the three solutions, confirming the cage confinement of the metal ions. […]",
  "data": [
    {"smiles": "CNC(=O)CN(CCN(CCN(CC(=O)[O-])CC(=O)NC)CC(=O)[O-])CC(=O)[O-].[Gd+3]", "note": "[gadodiamide]", "values": [
      {"measurement": "r1 (1.4 T), T1 relaxivity", "setting": "60 MHz (1.4 T) NMR", "result": 4.4, "unit": "mM⁻¹ s⁻¹"},
      {"measurement": "r1 (7.1 T), T1 relaxivity", "setting": "300 MHz (7.1 T) NMR", "result": "3.9 mM-1S-1"}
    ]}
  ]
}
